The text below walks through data of article PMC9043592, “New triterpenes from Cimicifuga yunnanensis down-regulating the mRNA expression of CD147, MMP-2, and MMP-9” (RSC Advances, 2021).

The subject of test [1] is MMP-2 mRNA expression. The test can be described thus: q-PCR, mRNA expression of MMP-2 in PMA-induced THP-1 cells. It is filed as cell-based, Human. Conditions: 24 h. As for the experimental part: (§1) Human monocytic THP-1 cells were cultured at 37 °C by DMEM/F12 medium supplemented with 10% fetal bovine serum and 1% penicillin/streptomycin in a humidified atmosphere of 5% CO2. Cells (5 × 10^5 to 10^6 per mL) were subjected to differentiation by 100 nM PMA for 24 h with DMEM/F12 serum medium. After incubation, the adherent cells were washed with DMEM/F12. Nonattached cells were removed by aspiration.
(§2) RevertAid™ First Strand cDNA Synthesis Kit was applied to extract total RNA of differentiated THP-1 cells treated with compounds 3–5, 9 and 11 (10 μM), along with 7 and 8 (1, 3, 10, 25, and 50 μM) for 24 h (5 × 10^5 cells per mL) following the manufacturer's instructions. cDNA was synthesized from the isolated total RNA based on the instruction of the PrimeScript RT reagent Kit. […]
(§3) After reverse transcription, cDNA was used to carry out real-time quantitative RT-PCR on ProFlex™ PCR system by SYBR Premix Ex Taq (Takara). […] Internal reference is GAPDH mRNA, and fold changes of mRNA expression for each target relative to GAPDH were calculated by the 2^−ΔΔCt method. Expression of mRNA is determined as the change in mRNA copy numbers relative to negative control cells (undifferentiated THP-1 cells). […]

Test [2] concerns MMP-9 mRNA expression. The test can be described thus: q-PCR, mRNA expression of MMP-9 in PMA-induced THP-1 cells. Type of test: cell-based, Human. Conditions: 24 h. The protocol:
as §1, §2, §3

In test [3] the test system is CD147 (extracellular matrix metalloproteinase inducer, EMMPRIN) mRNA expression. The test can be described thus: q-PCR, mRNA expression of CD147 in PMA-induced THP-1 cells. It is filed as cell-based, Human. The conditions noted are these: 24 h; for CD147 mRNA inhibitory effect compared with YG (positive control) / suppression of the mRNA expression of CD147 (in words): 10 μM; for IC50: Homo sapiens, q-PCR 2^-ΔΔCt, 1-50 μM, read-out: IC50, suppression of mRNA expression of CD147. The protocol: as §1
RevertAid™ First Strand cDNA Synthesis Kit was applied to extract total RNA of differentiated THP-1 cells treated with compounds 3–5, 9 and 11 (10 μM), along with 7 and 8 (1, 3, 10, 25, and 50 μM) for 24 h (5 × 10^5 cells per mL) following the manufacturer's instructions. cDNA was synthesized from the isolated total RNA based on the instruction of the PrimeScript RT reagent Kit. Briefly, PrimeScript RT Enzyme Mix 1 (0.5 μL), 5 × PrimeScriptTM Buffer (2 μL), oligo dt Primer (0.5 μL) and Random 6 mers (0.5 μL) were gently mixed with 1 μg RNA from each sample to a reaction volume of 10 μL with RNase free water, then incubated for 15 minutes at 37 °C to activate the reverse transcriptase enzyme. Finally, the reaction was stopped by 85 °C for 5 seconds.
After reverse transcription, cDNA was used to carry out real-time quantitative RT-PCR on ProFlex™ PCR system by SYBR Premix Ex Taq (Takara). The final volume of TR-PCR reaction is 25 μL, containing 12.5 μL SYBR green master mix, 1 μL cDNA, 0.5 μL each forward and reverse primer, and 10.5 μL nuclease-free water. For information of primers see Table S1. ^† Thermal cycling conditions for all genes were as follows: template pre-denaturation (10 min at 95 °C), denaturation (15 seconds at 95 °C), annealing and extension (30 seconds at 60 °C) for 40 cycles. Internal reference is GAPDH mRNA, and fold changes of mRNA expression for each target relative to GAPDH were calculated by the 2^−ΔΔCt method. Expression of mRNA is determined as the change in mRNA copy numbers relative to negative control cells (undifferentiated THP-1 cells). All the experiments were carried out in triplicate.

Test [4] deals with migration of PMA-induced THP-1 cells. The test can be described thus: Wound-healing (scratch wound) migration assay. Conditions: Homo sapiens, 24 h incubation, read-out: IC50, decrease of number of migrated cells. Type of test: cell-based. The protocol:
as §1
The differentiated THP-1 cells were seeded and grown into full confluence in 6 well plates. 2% FBS DMEM/F12 media was used to inactivated cell proliferation for 12 h, then wounded with pipette tips. Fresh DMEM/F12 medium with or without 1, 3, 10, 25, and 50 μM of 7 was added to the scratched monolayers. Images were took after 24 hours using a Nickon inverted microscope (magnification, 10×). The migration cell number of PMA-induced THP-1 cell group was defined as control. All the experiments were performed in triplicate.

In test [5] the test system is CD147 and MMPs mRNA expression. Also noted: method as in PMID 35541353, doi:10.1016/j.phytol.2021.01.009. The conditions noted are these: previously identified CTs from C. foetida; cited from earlier work.

In general, IC50 refers to the concentration that gives 50% inhibition. As to `CC1C(O)C2(OC3CC4(C)C5CCC6C(C)(C)C(O)CCC67CC57CCC4(C)C31)OC2C(C)(C)O` (stereo not shown) [Compound 8, Actaeaepol], in test [1] (10 μM, P < 0.01), the “decrease of MMP-2 mRNA expression” value is on record as 35%. The “decrease of MMP-9 mRNA expression” value in test [2] (10 μM, P < 0.01) is 25%. Further, in test [3], the “CD147 mRNA inhibitory effect compared with YG (positive control)” value is recorded as “same level of activity as YG”, the “suppression of the mRNA expression of CD147 (in words)” value is listed as “noticeably suppressed” and the IC50 turned out to be 8.25 ± 0.33 µM.

For the compound `CC1CC(C(O)C(C)(C)O)OC2(O)C(=O)C3(C)C4=CCC5C(C)(C)C(=O)CCC56CC46CC(O)C3(C)C12` [Compound 7, (23R,24S)-12β-Hydroxy-7(8)-en-3,15-dione-hydroxyshengmanol], the half-maximal inhibitory concentration (IC50) in test [4] turned out to be 5.87 ± 0.27 µM; in test [1] (Homo sapiens, q-PCR, 1-50 μM, read-out: IC50, down-regulation of mRNA expression of MMP-2) it was 6.32 ± 0.31 µM; in test [2] (Homo sapiens, q-PCR, 1-50 μM, read-out: IC50, down-regulation of mRNA expression of MMP-9), 11.6 ± 0.23 µM; in test [3], 3.38 ± 0.27 µM. Moreover, the “CD147 mRNA inhibitory effect compared with YG (positive control)” value in test [3] is “more potent than YG”. For the same compound, the “suppression of the mRNA expression of CD147 (in words)” value in test [3] is listed as “noticeably suppressed”.

In the case of 12β-hydroxycimiacerol [HC], the “inhibitions on CD147 and MMPs mRNA expression (in words)” value in test [5] is reported as “notable inhibitions”.

With yunnanterpene G [YG], in test [5], the “inhibitions on CD147 and MMPs mRNA expression (in words)” value is given as “notable inhibitions”.
